Columns and labels:
Format in all cases: in vivo
[1] = system: redroot pigweed (Amaranthus retroflexus, AMARE); assay: Pre-emerge test, greenhouse herbicide activity screening; details: pre-emerge, 14 days after application, rating scale 0-100
How it was run: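 Compounds in acetone were track-sprayed at 15-1000 g ai/ha (187 l/ha) on sandy loam pots: pre-emerge one day after seeding, post-emerge at 2-3 leaf stage with 0.25% v/v non-ionic surfactant. Phytotoxicity was rated 14 days later on a 0 (no damage) to 100 (complete death) scale.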

[2] = system: field corn (Zea mays L., var. Dekalb 535, CORN); assay: Pre-emerge test, crop safety; details: pre-emerge, 14 days after application, rating scale 0-100
How it was run: (§1)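 Sandy loam pots; pre-emerge: sown 1 d pre-spray, surface-watered after, then bottom-watered. Post-emerge: sown 8–21 d before, 2–3 leaf stage, + 0.25% v/v NIS, bottom-watered. Acetone, 187 l/ha track spray, 15–1000 g ai/ha. 0–100 injury score, day 14.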

[3] = system: upland rice (Oryza sp., var. Tebonnet, RICE); assay: Pre-emerge test, crop safety; details: pre-emerge, 14 days after application, rating scale 0-100
How it was run: as §1

[4] = system: large crabgrass (Digitaria sanguinalis, DIGSA); assay: Post-emerge test, greenhouse herbicide activity screening; details: rating scale 0-100 (0 no damage, 100 complete death), 14 days after application
How it was run: (§2)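 Plants grown in 10 cm pots of sandy loam mix received acetone-dissolved compounds through a moving flat-fan nozzle. Doses ranged from 15 to 1000 g ai/ha. Pre-emerge pots were seeded one day earlier, post-emerge pots 8–21 days earlier. Fourteen days on, each pot was graded 0–100 for damage.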

[5] = system: ivyleaf morningglory (Ipomoea hederacea, IPOHE); assay: as above; details: rating scale 0-100 (0 no damage, 100 complete death), 14 days after application
How it was run: as §2

[6] = system: lambsquarters (Chenopodium album, CHEAL); assay: as above; details: rating scale 0-100 (0 no damage, 100 complete death), 14 days after application
How it was run: as §2

[7] = system: green foxtail (Setaria viridis, SETVI); assay: as above; details: rating scale 0-100 (0 no damage, 100 complete death), 14 days after application
How it was run: as §2

[8] = system: sicklepod (Cassia obtusifolia, CASOB); assay: as above; details: rating scale 0-100 (0 no damage, 100 complete death), 14 days after application
How it was run: as §2

[9] = system: redroot pigweed (Amaranthus retroflexus, AMARE); assay: as above; details: rating scale 0-100 (0 no damage, 100 complete death), 14 days after application
How it was run: as §2

[10] = system: common ragweed (Ambrosia artemisizfolia L., AMBEL); assay: as above; details: Rate 63 g ai/ha; rating scale 0-100 (0 no damage, 100 complete death); 14 days after application
How it was run: as §2

[11] = system: johnsongrass (Sorghum halepense, SORHA); assay: as above; details: rating scale 0-100 (0 no damage, 100 complete death), 14 days after application
How it was run: as §2

[12] = system: velvetleaf (Abutilon theophrasti, ABUTH); assay: as above; details: rating scale 0-100 (0 no damage, 100 complete death), 14 days after application
How it was run: as §2

[13] = system: barnyardgrass (Echinochloa crus-galli, ECHCG); assay: as above; details: rating scale 0-100 (0 no damage, 100 complete death), 14 days after application
How it was run: as §2

[14] = system: field corn (Zea mays L., var. Dekalb 535, CORN); assay: Post-emerge test, crop safety; details: rating scale 0-100 (0 no damage, 100 complete death), 14 days after application
How it was run: (§3)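 Applied at 15–1000 g ai/ha from acetone in 187 l/ha spray volume. Post-emergence applications included 0.25% v/v non-ionic surfactant and reached plants sown 8–21 days before. Pre-emergence applications were incorporated by surface watering. Efficacy or crop damage was rated on a 0–100 scale after 14 days.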

[15] = system: upland rice (Oryza sp., var. Tebonnet, RICE); assay: Post-emerge test, crop safety; details: rating scale 0-100 (0 no damage, 100 complete death), 14 days after application
How it was run: as §3

[16] = system: large crabgrass (Digitaria sanguinalis, DIGSA); assay: Pre-emerge test, greenhouse herbicide activity screening; details: pre-emerge, 14 days after application, rating scale 0-100
How it was run: as §3

[17] = system: ivyleaf morningglory (Ipomoea hederacea, IPOHE); assay: as above; details: pre-emerge, 14 days after application, rating scale 0-100
How it was run: as §3

[18] = system: lambsquarters (Chenopodium album, CHEAL); assay: as above; details: pre-emerge, 14 days after application, rating scale 0-100
How it was run: as §3

[19] = system: green foxtail (Setaria viridis, SETVI); assay: as above; details: pre-emerge, 14 days after application, rating scale 0-100
How it was run: as §3

[20] = system: sicklepod (Cassia obtusifolia, CASOB); assay: as above; details: pre-emerge, 14 days after application, rating scale 0-100
How it was run: as §3

[21] = system: common ragweed (Ambrosia artemisizfolia L., AMBEL); assay: as above; details: pre-emerge, 14 days after application, rating scale 0-100
How it was run: as §3

[22] = system: johnsongrass (Sorghum halepense, SORHA); assay: as above; details: pre-emerge, 14 days after application, rating scale 0-100
How it was run: as §3

[23] = system: velvetleaf (Abutilon theophrasti, ABUTH); assay: as above; details: pre-emerge, 14 days after application, rating scale 0-100
How it was run: as §3

[24] = system: barnyardgrass (Echinochloa crus-galli, ECHCG); assay: as above; details: pre-emerge, 14 days after application, rating scale 0-100
How it was run: as §3

SMILES: COc1c(Cl)cc(F)c(-n2c(=O)cc(C(F)(F)F)n(C)c2=O)c1CC(C)(Cl)C(=O)OCCSC (centres unmarked) [14-48]
- phytotoxicity rating AMARE ([1]; 63 g ai/ha): 90
- phytotoxicity rating AMARE ([1]; 250 g ai/ha): 100
- phytotoxicity rating CORN ([2]; 63 g ai/ha): 0
- phytotoxicity rating CORN ([2]; 250 g ai/ha): 40
- phytotoxicity rating RICE ([3]; 63 g ai/ha): 30
- phytotoxicity rating RICE ([3]; 250 g ai/ha): 70
- Post-emerge Herbicidal Activity, phytotoxicity rating DIGSA ([4]; Rate 63 g ai/ha): 70
- Post-emerge Herbicidal Activity, phytotoxicity rating DIGSA ([4]; Rate 250 g ai/ha): 90
- Post-emerge Herbicidal Activity, phytotoxicity rating IPOHE ([5]; Rate 63 g ai/ha): 0
- Post-emerge Herbicidal Activity, phytotoxicity rating IPOHE ([5]; Rate 250 g ai/ha): 100
- Post-emerge Herbicidal Activity, phytotoxicity rating CHEAL ([6]; Rate 63 g ai/ha): 100
- Post-emerge Herbicidal Activity, phytotoxicity rating CHEAL ([6]; Rate 250 g ai/ha): 100
- Post-emerge Herbicidal Activity, phytotoxicity rating SETVI ([7]; Rate 63 g ai/ha): 50
- Post-emerge Herbicidal Activity, phytotoxicity rating SETVI ([7]; Rate 250 g ai/ha): 100
- Post-emerge Herbicidal Activity, phytotoxicity rating CASOB ([8]; Rate 63 g ai/ha): 0
- Post-emerge Herbicidal Activity, phytotoxicity rating CASOB ([8]; Rate 250 g ai/ha): 100
- Post-emerge Herbicidal Activity, phytotoxicity rating AMARE ([9]; Rate 63 g ai/ha): 100
- Post-emerge Herbicidal Activity, phytotoxicity rating AMARE ([9]; Rate 250 g ai/ha): 100
- Post-emerge Herbicidal Activity, phytotoxicity rating AMBEL [10]: 80
- Post-emerge Herbicidal Activity, phytotoxicity rating SORHA ([11]; Rate 63 g ai/ha): 0
- Post-emerge Herbicidal Activity, phytotoxicity rating SORHA ([11]; Rate 250 g ai/ha): 90
- Post-emerge Herbicidal Activity, phytotoxicity rating ABUTH ([12]; Rate 63 g ai/ha): 100
- Post-emerge Herbicidal Activity, phytotoxicity rating ABUTH ([12]; Rate 250 g ai/ha): 100
- Post-emerge Herbicidal Activity, phytotoxicity rating ECHCG ([13]; Rate 63 g ai/ha): 50
- Post-emerge Herbicidal Activity, phytotoxicity rating ECHCG ([13]; Rate 250 g ai/ha): 100
- Post-emerge phytotoxicity rating CORN (crop damage) ([14]; Rate 63 g ai/ha): 40
- Post-emerge phytotoxicity rating CORN (crop damage) ([14]; Rate 250 g ai/ha): 100
- Post-emerge phytotoxicity rating RICE (crop damage) ([15]; Rate 63 g ai/ha): 70
- Post-emerge phytotoxicity rating RICE (crop damage) ([15]; Rate 250 g ai/ha): 100
- phytotoxicity rating DIGSA ([16]; 63 g ai/ha): 0
- phytotoxicity rating DIGSA ([16]; 250 g ai/ha): 70
- phytotoxicity rating IPOHE ([17]; 63 g ai/ha): 0
- phytotoxicity rating IPOHE ([17]; 250 g ai/ha): 0
- phytotoxicity rating CHEAL ([18]; 63 g ai/ha): 50
- phytotoxicity rating CHEAL ([18]; 250 g ai/ha): 100
- phytotoxicity rating SETVI ([19]; 63 g ai/ha): 0
- phytotoxicity rating SETVI ([19]; 250 g ai/ha): 50
- phytotoxicity rating CASOB ([20]; 63 g ai/ha): 0
- phytotoxicity rating CASOB ([20]; 250 g ai/ha): 0
- phytotoxicity rating AMBEL ([21]; 63 g ai/ha): 0
- phytotoxicity rating AMBEL ([21]; 250 g ai/ha): 80
- phytotoxicity rating SORHA ([22]; 63 g ai/ha): 0
- phytotoxicity rating SORHA ([22]; 250 g ai/ha): 0
- phytotoxicity rating ABUTH ([23]; 63 g ai/ha): 90
- phytotoxicity rating ABUTH ([23]; 250 g ai/ha): 100
- phytotoxicity rating ECHCG ([24]; 63 g ai/ha): 0
- phytotoxicity rating ECHCG ([24]; 250 g ai/ha): 50

From patent US6355799B1, “Substituted benzene compounds, process for their preparation, and herbicidal and defoliant compositions containing them” (ISK Americas Incorporated, priority 1997, dated 2002)
